Experiments:
[1] = tested on: Lactococcus lactis subsp. cremoris PJ4662; assay: Biomass yield (OD600) in aerobic batch culture in defined SA medium; format: cell-based; details: for Increase of yield of biomass relative to MSA / Increase of yield of biomass relative to GSA: PJ4662, aerobic; for Increase of yield of biomass relative to MSA / Biomass: SA medium with 0.1% maltose; for Increase of yield of biomass relative to GSA: SA medium with growth limiting glucose; for Biomass: PJ4662, batch, maltose alone = 100
Protocol: Wild type L. lactis subsp. cremoris PJ4662, a derivative of the strain MG1363 containing the pAK80 plasmid (Israelsen et al., 1995) was grown aerobically in defined SA medium (Jensen and Hammer, 1993) supplemented with a growth limiting concentration of glucose (GSA), and in GSA medium further supplemented with haemin (GSA+H), heamin+lipoic acid (GSA+H+L) and: lipoic acid alone (GSA+L). The biomass yield was estimated by measuring the optical density at 600 nm (OD600). The yield of biomass increased by about 12% relative to the yield obtained with GSA when the medium was supplemented with haemin, by about 25% using the haemin+lipoic acid supplement and by about 7% using lipoic acid alone.
L. lactis subsp. cremoris PJ4662 was grown aerobically in defined SA medium (Jensen and Hammer, 1993) supplemented with a growth-limiting concentration of 0.1% maltose (MSA), and in MSA medium further supplemented with haemin (MSA+H), haemin+lipoic acid (MSA+H+L) and lipoic acid alone (MSA+L). The biomass yield was estimated by measuring the optical density at 600 nm (OD600), see Table 1.2 below.
It was also tested whether the extent of aeration affected the biomass yield and the amount of ATP produced by oxidative phosphorylation by performing an experiment (Table 1.3) using more vigorous aeration as compared to the experiment illustrated in Table 1.2.
Wild type L. lactis subsp. cremoris PJ4662, a derivative of the strain MG1363 containing the pAK80 plasmid (Israelsen et al., 1995) was grown aerobically in defined SA medium (Jensen and Hammer, 1993) supplemented with a growth limiting concentration of galactose and lipoic acid (GaSAL), and in GaSAL medium further supplemented with haemin+lipoic acid (GaSALH). The biomass yield was estimated by measuring the optical density at 600 nm (OD600). The yield of biomass increased by 30% relative to the yield obtained with GaSAL when the medium was supplemented with haemin (GaSALH). A chemostat experiment was also performed with cells grown on galactose. Here the biomass increased by 75% compared to the biomass obtained in GaSAL medium.

[2] = tested on: Lactococcus lactis subsp lactis FHCY-1; assay: Growth in M17 batch cultures supplemented with different sugars; format: cell-based; details: FHCY-1, M17 medium
Protocol: Therefore, the growth of the starter culture strain, FHCY-1, was tested on various sugars.

[3] = tested on: phospho-β-D-galactosidase in FHCY-1 cells; assay: Phospho-beta-galactosidase activity (ONPG-P substrate) as lac operon expression; format: cell-based, Lactococcus lactis subsp. lactis; details: for Specific activity of phospho-β-D-galactosidase: FHCY-1 cells grown in M17 on the carbon/energy source, average of two determinations
Protocol: The expression of the lac operon in the cells grown on the various sugars was also tested by measuring the activity of the enzyme phospho-beta-galactosidase. Samples were taken from the cultures in FIG. 2 and processed as described previously (Jensen and Hammer, 1998). Subsequently, the activity of phospho-beta-galactosidase was determined as the standard determination of beta-galactosidase, except that o-nitrophenyl-beta-D-galactopyranoside 6-phosphate (ONPG-P) was used as the chromogenic substrate instead of o-nitrophenyl-beta-D-galactopyranoside (ONPG).

[4] = tested on: commercial mixed strain starter culture of Lactococcus lactis; assay: Biomass production in pH controlled aerobic batch in complex media with haemin; format: cell-based; details: for Yield (OD600nm): haemin, aerobic pH controlled batch
Protocol: A commercial mixed strain starter culture of Lactococcus lactis was applied in this Example. The cultivations were performed on complex media containing hydrolysed skimmed milk powder, yeast extract, essential vitamins and minerals and either lactose or maltose as carbon source. Furthermore, the media were supplemented with haemin. Medium 1 and Medium 2 were optimised with respect to the cellular yield on respectively lactose and maltose as carbon source. All media were adjusted to an initial pH of 6.5.
The cultivations were inoculated with concentrated cell suspensions of the L. lactis culture. Air was sparged through the cultivation broths at a rate sufficient to maintain the dissolved oxygen concentration above 50% of saturation level. The cultivations were conducted at a temperature of 30° C. The cultures were allowed to acidify to pH 6.2, and subsequently maintained at pH 6.2 by controlled addition of 13.4 N NH4OH. Samples were collected throughout the cultivations for measurements of the optical density using a Hitachi U-1100 Spectrophotometer at […].

[5] = tested on: atp mutant strain PJ4699; assay: Biomass yield (OD600) of atp mutant strain with lower H+-ATPase expression; format: cell-based, Lactococcus lactis; details: PJ4699, no nisin
Source text: In order to investigate whether or not the surplus of ATP that was found in the cultures cultivated in maltose medium (with haemin and lipoic acid) is due to oxidative phosphorylation it was decided to compare the biomass yield of a wild type strain and a strain which, relative to the wild type strain, has a lower expression of the H^+-ATPase complex. For that purpose a mutant strain of the MG1363 strain, PJ4699, was used. In this mutant strain the native promoter of the chromosomal atp operon has been replaced with the nisA promoter (de Ruyter et al., 1996).
This mutant therefore permitted an experiment to be performed where the biomass yield of the wild type strain and the H^+-ATPase mutant which had lower expression of the H^+-ATPase was compared. If ATP is synthesised by the H^+-ATPase complex, then the biomass yield on maltose should be lower in the mutant cells having lower activity of this enzyme, under conditions where oxidative phosphorylation is observed.

[6] = tested on: Lactococcus lactis subsp. cremoris; assay: Intracellular [ATP]/[ADP] ratio in exponentially growing aerobic cultures; format: cell-based; details: MSA+L+H versus MSA+L
Protocol: The intracellular concentrations of ATP and ADP was measured to test whether the addition of a porphyrin to a culture growing on a poor carbon/energy source would increase the [ATP]/[ADP] ratio as might be expected if the ATP synthase starts to produce ATP. Samples were taken from exponentially growing cultures of Lactococcus lactis subsp. cremoris at cell densities between 0.2 and 0.8 (OD600). The total intracellular metabolite content were extracted as described previously (Andersen et al., 2001) and the concentrations of ATP and ADP were determined as described in Jensen et al. (1 993).

[7] = Medium 1 (optimised for growth on lactose)

| Compound | Increase of yield of biomass relative to MSA [1] | Increase of yield of biomass relative to GSA [1] | Specific activity of phospho-β-D-galactosidase [3] | Yield (OD600nm) [4, 7] | also measured |
| --- | --- | --- | --- | --- | --- |
| O=C(O)CCCC[C@@H]1CCSS1 (racemic) [lipoic acid] | 48% | about 7% |  |  |  |
| O=C[C@H](O)[C@@H](O)[C@@H](O)[C@H](O)CO [Galactose, galactose] |  |  | 172.2 |  | Reduction of growth compared to lactose [2]: approximately 20%; Increase of phospho-β-D-galactosidase activity compared to lactose ([3]; FHCY-1 cells): 20% |
| OC[C@H]1O[C@@H](O[C@H]2[C@H](O)[C@@H](O)C(O)O[C@@H]2CO)[C@H](O)[C@@H](O)[C@H]1O (stereo partly drawn) [Lactose, lactose] |  |  | 149.5 | 48 OD600nm |  |
| OC[C@H]1O[C@H](O[C@H]2[C@H](O)[C@@H](O)[C@H](O)O[C@@H]2CO)[C@H](O)[C@@H](O)[C@@H]1O [maltose] |  |  | 37.5 | 60 OD600nm | Biomass ([1]; moderate aeration): 100%; Biomass ([1]; vigorous aeration): 100%; Yield (OD600nm) ([4]; Medium 2 (optimised for growth on maltose)): 96 OD600nm; Increase of final yield of biomass compared to the lactose culture ([4]; medium 1, haemin, aerobic): 25%; Yield of biomass compared to optimised lactose medium ([4]; medium 2, haemin, aerobic): two-fold higher |
| haemin | 33% | about 12% |  |  | Growth of the nisin-dependent atp mutant without nisin [5]: capable of growth without nisin; Growth rate increase of haemin culture versus culture without haemin [6]: 30% |

Source: US20040214305A1, “Method of improving biomass yield of lactic acid bacterial cultures” (DANMARKS TEKNISKE UNIVERSITET, priority 2000, published 2004)
